Results on one substance are retold here after PMC5896380, “Selective imaging of cathepsin L in breast cancer by fluorescent activity-based probes” (Chemical Science, 2018).

The subject of test [1] is cathepsin L in MDA-MB-231 cells. In words: Weighted colocalization of probe with cathepsin L antibody, confocal microscopy. Format: cell-based, human. As to conditions: 1 μM probe. The protocol:
Glass coverslips 15 mm in diameter were placed in 12-well plates and coated with poly-D-lysine (500 μL, 1 mg mL^–1 in water, Specialty Media) for 30 minutes. The poly-D-lysine was aspirated and the coverslips were washed twice with sterile water and air-dried. Next, low passage MDA-MB-231 cells in DMEM (100 000 cells per mL) were added to wells (1 mL per well) and allowed to attach for 2 hours. Cells were then treated with Cy5-labeled probes (1 μM) for 8 or 24 hours. The control cells were preincubated with E64d for 2 hours. After various incubation times, the medium was removed and the cells were gently washed twice with DPBS (1 mL each). The cells were then fixed with ice-cold methanol (500 μL per well) for 15 minutes at –20 °C. The methanol was gently removed and the fixed cells were washed twice with DPBS, blocked and permeabilized with 10% BSA in DPBS (with 0.5% Triton-X, v/v) for 1 hour at room temperature, and washed twice with 3% BSA in DPBS (with 0.5% Triton-X, v/v). Cathepsins L and B were detected by primary goat anti-hCathepsin L (R&D, AF952, 0.2 mg mL^–1, 1 : 200) and goat anti-hCathepsin B (R&D, AF953, 0.2 mg mL^–1, 1 : 80), respectively, in 3% BSA in DPBS (with 0.5% Triton-X, v/v) for 2 hours at room temperature. The antibodies were removed and the cells were washed twice with 3% BSA in DPBS (with 0.5% Triton-X, v/v) and labeled with a secondary antibody (Alexa Fluor™ 488 donkey anti-goat IgG (H + L), A11055, Invitrogen, 1 : 500) in DPBS (with 0.5% Triton-X, v/v) for 1 hour at room temperature. Next, the cells were washed twice with DPBS, and coverslips were mounted using Vectashield mounting medium fluorescence containing DAPI (Vector Lab. H-1000). In brief, a drop of mounting medium was placed on the Superfrost Plus microscope slide (Fisher Scientific, no. 12-550-15) and the coverslip was placed on the drop upside-down. […] DAPI was detected using the UV channel, the Cy5 probe was detected with a Cy5 filter (excitation at 647 nm (Axio Observer) or 633 nm (Zeiss LSM), emission at 667 nm; red channel) and cathepsins/secondary antibodies were read using FITC filters (excitation at 495 nm (Axio Observer) or 488 nm (Zeiss LSM), emission at 517 nm; […]; green channel). All images were acquired in .tiff format in MetaMorph software or in .lsm format in ZEN software and analyzed using ImageJ and ZEN software. […]
To quantify ABP/cathepsin colocalization we calculated weighted colocalization coefficients between the MP-cL3 ABP (red) and cathepsin L (green) and between the MP-cL3 ABP (red) and cathepsin B (green) using ZEN 2011 software. […]

The test system of test [2] is cathepsin B in MDA-MB-231 cells. Nature of the test: Weighted colocalization of probe with cathepsin B antibody, confocal microscopy. Format: cell-based, human. To be noted: CatB ab (8h), 1 μM probe. As for the experimental part: Glass coverslips 15 mm in diameter were placed in 12-well plates and coated with poly-D-lysine (500 μL, 1 mg mL^–1 in water, Specialty Media) for 30 minutes. The poly-D-lysine was aspirated and the coverslips were washed twice with sterile water and air-dried. Next, low passage MDA-MB-231 cells in DMEM (100 000 cells per mL) were added to wells (1 mL per well) and allowed to attach for 2 hours. Cells were then treated with Cy5-labeled probes (1 μM) for 8 or 24 hours. The control cells were preincubated with E64d for 2 hours. After various incubation times, the medium was removed and the cells were gently washed twice with DPBS (1 mL each). The cells were then fixed with ice-cold methanol (500 μL per well) for 15 minutes at –20 °C. […] Cathepsins L and B were detected by primary goat anti-hCathepsin L (R&D, AF952, 0.2 mg mL^–1, 1 : 200) and goat anti-hCathepsin B (R&D, AF953, 0.2 mg mL^–1, 1 : 80), respectively, in 3% BSA in DPBS (with 0.5% Triton-X, v/v) for 2 hours at room temperature. […] Next, the cells were washed twice with DPBS, and coverslips were mounted using Vectashield mounting medium fluorescence containing DAPI (Vector Lab. H-1000). […] All images were acquired in .tiff format in MetaMorph software or in .lsm format in ZEN software and analyzed using ImageJ and ZEN software. […]

“Cy5-6-ahx-His-DThr-Phe(F5)-Cys(Bzl)-AOMK [MP-cL3]”: the weighted colocalization coefficient in test [1] (CatL ab (8h), single cells analysis, 98 single cells) came out at 0.928; in test [1] (CatL ab (8h), whole pictures analysis, 8 images), 0.937; in test [1] (CatL ab (24h), single cells analysis, 59 single cells), 0.695; in test [1] (CatL ab (24h), whole pictures analysis, 8 images), 0.725; in test [2] (single cells analysis, 68 single cells) it was 0.635; in test [2] (whole pictures analysis, 7 images), 0.646.
